This data set can be described thus: In vivo metabolism of compound of formula I in bile duct cannulated rats by LC/UV/MSn. Details: species or system rat. The settings on record: BDC rats; for Relative abundance in rat bile / Relative abundance in rat urine: 10 mg/kg; for Relative abundance in rat bile: bile over 9 hour; for Relative abundance in rat urine: urine over 9 hour; for Relative abundance in gastrointestinal samples from rats dosed orally: 10 mg/kg oral, GIT at 9 hour. The method, then: The in vivo metabolism of compound of formula I was investigated in bile duct cannulated rats (n=2), following a single dose of 10 mg/kg either intravenously (IV) as a 10 minute infusion or orally by gavage. The vehicle used was 50 mM sodium acetate buffer, pH 4.6. The rats were fasted overnight and for the duration of the study. Urine and bile were collected over a 9 hour period. The gastrointestinal tract (GIT) and feces were collected at the end of the 9 hour study period. GIT and feces were homogenized with 3 volumes of water and 3 volumes of acetonitrile per volume of GIT/feces. Blood samples were collected at 15, 30 minutes, 1, 2, 4, 6 and 9 hours after intravenous and oral dosing in tubes containing EDTA and plasma was prepared by centrifugation. Samples were stored at −20° C. until analysis.
Plasma samples were pooled across collection intervals and treated with two volumes of acetonitrile. After centrifugation, the supernatent was removed and evaporated to dryness. The residues were then redissolved in 300 μl of methanol:water (1:1). Bile and urine samples from the BDC rat study were pooled across collection intervals. Bile samples were purified by sep-pak purification on C8 cartridges. The samples were evaporated and the residue was redissolved in 300 μl of methanol:water (1:1). Urine samples were diluted one to one with methanol and analyzed without further purification. All samples were analyzed by LC/UV/MS^n.
The HPLC system consisted of Waters alliance 2690 separation module. The column used was a Phenomenex Curosil PFP, 4.6 mm×150 mm, 5 μ particles with a flow rate of 1.0 mL/min. The mobile phase consisted of 95/5 v/v Water/Methanol containing 0.1% formic acid (Solvent A) and Methanol (Solvent B). The initial mobile phase composition was 20% Solvent B. After sample injection, this composition was held for 0.5 minute at initial conditions then ramped to 80% solvent B up to 24.5 min, and ramped to 100% solvent B up to 28 minutes. The mobile phase was then returned to initial conditions and the column re-equilibrated for 5 minutes. Total analysis time was 33 minutes.
The HPLC was interfaced to a Finnigan's Photo Diode Array Detector (PDA: UV6000) in tandem with Finnigan Deca XP ion trap mass spectrometer. Deca XP mass spectrometer was equipped with an Electrospray ionization source (ESI) interface. The source was operated in a positive ion mode with capillary temperature of 350° C. and source voltage 5.0 kV. The UV profile was extracted at […] of 254 nm. UHP (Ultra High Purity) nitrogen was used as sheath and auxiliary gas. The normalized collision energy was set at 50% and the isolation width was 3.0 amu. Multiple MS experiments were performed in a single chromatographic run with the following data dependent settings: […]

The structures appear in SMILES notation.

As to `Cc1nc(Nc2ncc(C(=O)Nc3c(C)cccc3Cl)s2)cc(N2CC[N+]([O-])(CCO)CC2)n1` [M5 (III)], the “Relative abundance in rat bile” value is on record as “major metabolites” and the “Relative abundance in rat urine” value is listed as “major metabolite”.

For `Cc1nc(Nc2ncc(C(=O)Nc3c(C)cccc3Cl)s2)cc(N2CCN(CC(=O)O)CC2)n1` [M6 (IV), 2-(4-(6-(5-((2-Chloro-6-methylphenyl)carbamoyl)thiazol-2-ylamino)-2-methylpyrimidin-4-yl)piperazin-1-yl)acetic acid], the “Relative abundance in gastrointestinal samples from rats dosed orally” value (“Relative abundance … from rats dosed orally” for short) is on record as “trace amounts” and the “Relative abundance in rat bile” value is reported as “major metabolites”.

In the case of `Cc1nc(Nc2ncc(C(=O)Nc3c(C)cccc3Cl)s2)cc(N2CCNCC2)n1` [M4 (II)], the “Relative abundance … from rats dosed orally” value is recorded as “trace amounts”.

As for `Cc1nc(Nc2ncc(C(=O)Nc3c(C)cccc3Cl)s2)cc(N2CCN(CCO)CC2)n1` [Parent (I), N-(2-Chloro-6-methylphenyl)-2-[[6-[4-(2-hydroxyethyl)-1-piperazinyl]-2-methyl-4-pyrimidinyl]amino]-5-thiazolecarboxamide], the “Relative abundance … from rats dosed orally” value was “major drug related peak” and the “Relative abundance in rat urine” value was “trace amounts”. Also, the “Relative abundance in rat plasma” value (10 mg/kg IV or oral, pooled plasma, LC/UV/MSn) was “major peak”.

The record behind these values is US20060211705A1, “'N-(2-chloro-6-methylphenyl)-2-[[6-[4-(2-hydroxyethyl)-1-piperazinyl]-2-methyl-4-pyrimidinyl]amino]-5-thiazolecarboxamides metabolites” (priority 2005, published 2006).
